Test [1] concerns the target T1, recombinant DNMT1 enzyme (Homo sapiens, UniProt P26358).
T1 construct: purchased Active Motif, Belgium
Kind of test: cell-free DNMT Activity/Inhibition Assay (Active Motif). The class given is biochemical. Conditions: manufacturer's standard protocol, FIG. 1. The source says:
Here, the assay manufacturer's standard protocol was used.

Test [2] has as its system expression of 45 genes in the epidermis. Kind of test: in vivo study: gene expression in epidermis (TaqMan) after eight weeks of cream application. Conditions: verum cream on inner forearm for eight weeks, 19 test subjects (50-65 years), 45 genes analyzed, ΔΔCt method, FIG. 3. As to the method: To this end, 19 test subjects (50-65 years) applied cream comprising a vehicle and a verum including dihydromyricetin to the inner forearm over a period of eight weeks. Suction blisters were then produced and the epidermis was harvested. The RNA was isolated from the epidermis samples (RNeasy Fibrous Tissue Kit, Qiagen, Hilden) and the expression of 45 genes (+3 endogenous control genes) was analyzed using the TaqMan system (7900HT Fast Real-Time PCR System, Applied Biosystems). […] The changes in expression were calculated using the ΔΔCt method.
On the technique in general: Real-time PCR tracks product formation cycle by cycle.

In test [3] the test system is DNA methylation of 850 000 CpGs in the epidermis. Kind of test: in vivo study: epidermal DNA methylation by EPIC technology after cream application and UV irradiation. Conditions: verum cream on lower back for two weeks, UV 0.8 MED on three consecutive days, compared to unirradiated control, n=32, FIG. 2. As to the method:
To this end, test subjects (n=32) applied cream comprising a vehicle and a verum including dihydromyricetin to the lower back for two weeks. After the two-week treatment period, the test subjects were irradiated with UV (0.8 MED) on three consecutive days in order to imitate an age-relevant environmental influence. 24 hours after the final UV irradiation, suction blisters were produced and the epidermis was harvested. The DNA was isolated from the epidermis and the state of the DNA methylation of 850 000 CpGs was determined by means of EPIC technology from Illumina.

T1 sequence (P26358 whole entry): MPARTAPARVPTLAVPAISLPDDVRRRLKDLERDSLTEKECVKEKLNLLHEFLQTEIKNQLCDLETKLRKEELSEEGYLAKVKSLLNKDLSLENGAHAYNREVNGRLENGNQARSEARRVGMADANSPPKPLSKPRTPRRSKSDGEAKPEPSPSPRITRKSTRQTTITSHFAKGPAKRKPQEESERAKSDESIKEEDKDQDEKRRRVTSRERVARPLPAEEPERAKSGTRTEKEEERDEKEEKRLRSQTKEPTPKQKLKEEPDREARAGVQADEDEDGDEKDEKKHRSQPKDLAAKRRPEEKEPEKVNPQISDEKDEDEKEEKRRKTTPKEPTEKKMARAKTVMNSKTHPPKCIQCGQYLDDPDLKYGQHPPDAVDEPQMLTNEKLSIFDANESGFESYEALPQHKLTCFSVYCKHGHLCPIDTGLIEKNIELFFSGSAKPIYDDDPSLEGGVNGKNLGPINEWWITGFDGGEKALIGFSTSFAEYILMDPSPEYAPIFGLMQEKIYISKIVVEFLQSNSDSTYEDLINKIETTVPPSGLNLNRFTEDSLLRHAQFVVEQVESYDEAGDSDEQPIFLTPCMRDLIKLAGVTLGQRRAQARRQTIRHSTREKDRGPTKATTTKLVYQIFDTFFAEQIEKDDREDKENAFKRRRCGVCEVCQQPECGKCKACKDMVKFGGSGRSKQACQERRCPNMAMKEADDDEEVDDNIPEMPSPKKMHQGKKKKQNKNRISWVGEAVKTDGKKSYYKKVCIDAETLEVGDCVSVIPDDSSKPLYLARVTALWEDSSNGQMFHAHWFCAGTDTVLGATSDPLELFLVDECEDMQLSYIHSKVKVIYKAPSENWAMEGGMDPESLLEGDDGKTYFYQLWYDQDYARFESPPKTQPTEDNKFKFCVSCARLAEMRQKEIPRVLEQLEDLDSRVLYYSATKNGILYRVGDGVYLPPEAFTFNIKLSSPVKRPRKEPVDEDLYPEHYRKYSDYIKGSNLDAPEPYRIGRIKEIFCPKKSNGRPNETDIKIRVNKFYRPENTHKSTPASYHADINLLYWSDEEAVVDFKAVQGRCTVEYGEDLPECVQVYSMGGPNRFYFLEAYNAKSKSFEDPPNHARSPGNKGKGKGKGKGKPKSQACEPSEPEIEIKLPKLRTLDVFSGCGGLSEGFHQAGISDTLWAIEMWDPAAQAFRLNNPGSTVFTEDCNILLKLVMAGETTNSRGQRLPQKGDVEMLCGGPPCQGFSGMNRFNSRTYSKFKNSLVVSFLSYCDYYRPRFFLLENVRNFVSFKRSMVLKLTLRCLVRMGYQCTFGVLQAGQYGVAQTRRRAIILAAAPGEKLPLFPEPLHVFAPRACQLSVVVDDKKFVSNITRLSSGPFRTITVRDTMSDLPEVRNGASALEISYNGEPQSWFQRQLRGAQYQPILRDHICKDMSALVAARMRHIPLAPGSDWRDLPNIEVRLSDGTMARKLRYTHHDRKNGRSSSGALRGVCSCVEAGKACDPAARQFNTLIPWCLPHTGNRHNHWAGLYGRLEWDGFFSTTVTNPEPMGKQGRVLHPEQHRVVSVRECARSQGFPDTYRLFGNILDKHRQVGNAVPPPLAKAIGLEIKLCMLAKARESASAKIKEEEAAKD

As for `O=C1c2c(O)cc(O)cc2O[C@H](c2cc(O)c(O)c(O)c2)[C@H]1O` [dihydromyricetin, (2R,3R)-3,5,7-trihydroxy-2-(3,4,5-trihydroxyphenyl)chroman-4-one], the “inhibition of the recombinant DNMT1 enzyme” value in test [1] is “concentration-dependent inhibition”. Moreover, the “genes with significant increase in expression in comparison to vehicle-treated control samples” value in test [2] came out at 16 genes. The “methylation changes at CpGs at which the vehicle-treated area did not show any significant methylation changes” value in test [3] is 16 389 CpGs.

The values are drawn from patent US20230414555A1, “USE OF DIHYDROMYRICETIN AS EPIGENETIC ACTIVE INGREDIENT FOR COSMETIC OR DERMATOLOGICAL SKIN CARE” (BEIERSDORF AG, priority 2020, published 2023).
